Experimental data published in patent US11548900B2, “Oxazino-quinazoline and oxazino-quinoline type compound, preparation method and uses thereof” (BEIJING SCITECH-MQ PHARMACEUTICALS LIMITED, priority 2018, dated 2023).

Legend:
[1] = target: HER2 kinase (Homo sapiens (Human), UniProt P04626); experiment: Inhibition of HER2 kinase activity (ULight-labeled PolyGT substrate); assay type: biochemical; settings: HER2 kinase 10 nM, ATP 10 μM, 2 hours
In short: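 Eleven-point 3-fold dilutions (0.042 nM–2.5 μM final, 1% DMSO) tested in duplicate against 10 nM HER2 with 100 nM ULight-labelled PolyGT and 10 μM ATP. Reaction ran 2 h at RT after 5 min pre-incubation; 665/615 nm TR-FRET ratio used to derive inhibition and IC50.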

[2] = target: EGFR kinase (Homo sapiens (Human), UniProt P00533); experiment: Inhibition of EGFR kinase activity (ULight-labeled JAK-1 (Tyr1023) peptide substrate); assay type: biochemical; settings: EGFR kinase 0.35 nM, ATP 150 μM, 2 hours
In short: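 TR-FRET kinase assay: 0.35 nM EGFR, 150 μM ATP, 100 nM substrate, 2 h at room temperature in the dark after 5 min enzyme-compound preincubation, 1% DMSO. Compounds tested as 11-point 3-fold series, 2.5 μM to 0.042 nM final, duplicate; IC50 from 665/615 nm ratio-based inhibition.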

[3] = tested on: BT474 cells; experiment: Inhibition of cell proliferation, BT474 (CCK-8, 72 h); assay type: cell-based; settings: Homo sapiens, BT-474, 72 h incubation
In short: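 BT474 and HCC827 seeded at 10,000 and 3000 cells/well respectively, cultured overnight, then exposed to 10-point 3-fold compound dilutions (top stock 10 mM; 0.25% DMSO final) for 72 h. Viability by CCK-8, OD450; survival normalised to untreated and cell-free blanks, IC50 from curve fit.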

[4] = tested on: HCC827 cells; experiment: Inhibition of cell proliferation, HCC827 (CCK-8, 72 h); assay type: cell-based; settings: Homo sapiens, 72 h incubation
Protocol: The assay for the inhibition of cell proliferation by small molecular compounds was carried out using the method as follows:
1. 600 μL pancreatin was added to a T75 cell culture flask, which was digested in a 37° C. incubator for about 1 min before 5 mL of DMEM complete culture solution was added, blew evenly, transferred to a 15 mL centrifuge tube, and centrifuged at 1000 rpm for 4 min;
2. The supernatant was removed and 5 mL DMEM complete culture solution was added, blew evenly, and 10 μL cell suspension was taken and mixed with 10 μL 0.4% Trypan Blue, and counted using a cell counter;
3. BT474 and HCC827 cell lines were seeded in 96-well plates at a cell density of 10,000 and 3000 cells/well/80 μL, respectively, and cultured overnight. Only sterile water was added to the 36 wells on the periphery of the 96-well plate without adding cells, and only the 60 wells in the center of the 96-well plate were used for cell assays and controls;
4. Dilution of compounds: the compounds were diluted with a 3-fold dilution to make 10 concentrations in total with an initial concentration of 10 mM;
5. 20 μL of different compounds with different concentrations were added to each well, and 20 μL of complete culture solution was added to the remaining wells. The final concentration of DMSO in each well is 0.25%;
6. After 72 h of incubation, 10 μL CCK-8 reagent was added to each well, and incubated at 37° C. for 1-2 h; and the OD value was read at 450 nm;
7. Cell survival rate (%)=[(As−Ab)/(Ac−Ab)]*100%
As: Assay well (medium containing cell, CCK-8, compound)
Ac: Control well (medium containing cell, CCK-8)
Ab: Blank well (CCK-8, medium without cell and compound)
8. The value was imported into Graphpad Prism5 software for the calculation of IC50s (compound concentration at which 50% maximum survival rate is observed).

Sequence of EGFR kinase (P00533 25-1210): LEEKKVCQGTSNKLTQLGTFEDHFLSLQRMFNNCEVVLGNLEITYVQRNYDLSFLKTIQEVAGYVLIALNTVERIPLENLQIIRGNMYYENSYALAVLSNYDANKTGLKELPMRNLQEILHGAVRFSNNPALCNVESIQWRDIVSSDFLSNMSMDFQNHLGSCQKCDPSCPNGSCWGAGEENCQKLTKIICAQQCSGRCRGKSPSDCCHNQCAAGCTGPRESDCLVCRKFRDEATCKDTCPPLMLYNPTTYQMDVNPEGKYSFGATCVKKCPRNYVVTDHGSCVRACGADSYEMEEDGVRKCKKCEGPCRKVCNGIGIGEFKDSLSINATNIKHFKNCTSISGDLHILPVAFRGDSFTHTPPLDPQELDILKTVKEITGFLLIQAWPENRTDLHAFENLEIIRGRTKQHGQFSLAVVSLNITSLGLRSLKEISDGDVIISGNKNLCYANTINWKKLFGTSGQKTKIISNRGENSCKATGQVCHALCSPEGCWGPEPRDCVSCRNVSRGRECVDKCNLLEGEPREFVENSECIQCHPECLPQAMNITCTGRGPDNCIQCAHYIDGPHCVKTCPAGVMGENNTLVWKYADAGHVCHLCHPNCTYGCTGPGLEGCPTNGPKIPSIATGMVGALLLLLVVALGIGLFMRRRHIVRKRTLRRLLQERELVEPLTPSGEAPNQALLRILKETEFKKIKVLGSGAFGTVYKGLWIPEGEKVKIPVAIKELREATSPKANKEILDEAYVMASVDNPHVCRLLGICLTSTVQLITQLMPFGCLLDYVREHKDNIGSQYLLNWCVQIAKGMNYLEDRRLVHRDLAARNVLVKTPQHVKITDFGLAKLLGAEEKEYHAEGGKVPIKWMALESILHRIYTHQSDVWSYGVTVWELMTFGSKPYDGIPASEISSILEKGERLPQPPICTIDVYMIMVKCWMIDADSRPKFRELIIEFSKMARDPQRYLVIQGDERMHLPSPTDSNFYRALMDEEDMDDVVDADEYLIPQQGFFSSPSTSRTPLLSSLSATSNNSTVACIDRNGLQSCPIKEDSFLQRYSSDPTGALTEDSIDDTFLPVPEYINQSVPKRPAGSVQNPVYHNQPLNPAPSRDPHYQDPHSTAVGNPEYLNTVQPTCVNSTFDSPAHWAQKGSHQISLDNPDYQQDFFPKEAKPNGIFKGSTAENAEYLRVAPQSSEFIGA
Sequence of HER2 kinase (P04626 23-1255): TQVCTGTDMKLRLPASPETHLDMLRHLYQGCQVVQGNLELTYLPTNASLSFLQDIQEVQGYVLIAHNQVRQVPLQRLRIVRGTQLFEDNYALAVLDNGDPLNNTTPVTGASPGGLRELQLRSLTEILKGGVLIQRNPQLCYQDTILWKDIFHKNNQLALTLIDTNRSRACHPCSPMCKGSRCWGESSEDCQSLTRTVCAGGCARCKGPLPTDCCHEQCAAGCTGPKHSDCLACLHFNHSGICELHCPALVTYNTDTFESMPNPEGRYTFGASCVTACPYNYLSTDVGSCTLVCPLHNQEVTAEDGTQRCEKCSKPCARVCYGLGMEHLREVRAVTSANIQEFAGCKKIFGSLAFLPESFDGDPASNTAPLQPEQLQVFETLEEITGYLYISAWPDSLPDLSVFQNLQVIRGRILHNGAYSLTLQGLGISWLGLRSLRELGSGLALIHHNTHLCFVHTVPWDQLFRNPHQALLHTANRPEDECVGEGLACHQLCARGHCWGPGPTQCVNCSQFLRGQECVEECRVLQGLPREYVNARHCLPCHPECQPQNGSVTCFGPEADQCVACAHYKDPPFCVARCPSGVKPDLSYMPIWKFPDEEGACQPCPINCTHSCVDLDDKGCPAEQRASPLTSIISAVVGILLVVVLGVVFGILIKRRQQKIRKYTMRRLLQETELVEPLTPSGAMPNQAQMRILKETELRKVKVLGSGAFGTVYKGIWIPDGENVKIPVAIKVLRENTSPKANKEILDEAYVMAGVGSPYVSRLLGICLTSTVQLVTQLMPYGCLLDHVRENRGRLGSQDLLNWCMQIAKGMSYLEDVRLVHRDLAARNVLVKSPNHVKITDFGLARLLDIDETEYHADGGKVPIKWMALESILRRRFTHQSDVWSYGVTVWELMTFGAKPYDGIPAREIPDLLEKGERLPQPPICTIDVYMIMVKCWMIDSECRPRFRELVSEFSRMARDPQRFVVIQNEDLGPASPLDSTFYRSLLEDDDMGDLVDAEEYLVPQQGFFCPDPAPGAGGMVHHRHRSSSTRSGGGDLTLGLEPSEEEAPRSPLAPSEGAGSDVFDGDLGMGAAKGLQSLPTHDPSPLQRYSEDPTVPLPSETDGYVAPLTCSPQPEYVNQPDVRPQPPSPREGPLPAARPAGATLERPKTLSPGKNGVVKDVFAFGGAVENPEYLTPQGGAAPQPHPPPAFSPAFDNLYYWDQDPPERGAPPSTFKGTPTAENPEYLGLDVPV

Structure (SMILES) | IC50 [1] [nM] | IC50 [2] [nM] | IC50 [3] [nM] | IC50 [4] [nM]
CN(C)C/C=C/C(=O)N1CCOc2c1ccc1ncnc(Nc3ccc(OCc4cccnc4)cc3)c21 [Example 76, (E)-4-(dimethylamino)-1-(10-((4-(pyridin-3-ylmethoxy)phenyl)amino)-2,3-dihydro-4H-[1,4]oxazino[2,3-f]quinazolin-4-yl)but-2-en-1-one] | ≤ 50 | 500 to 5000 | ≤ 50 | 50 to 500
CN(C)C/C=C/C(=O)N1CCOc2c1ccc1ncnc(Nc3ccc(OCc4cccc(Cl)c4)cc3)c21 [Example 83, (E)-1-(10-((4-((3-chlorobenzyl)oxy)phenyl)amino)-2,3-dihydro-4H-[1,4]oxazino[2,3-f]quinazolin-4-yl)-4-(dimethylamino)but-2-en-1-one] | ≤ 50 | ≤ 50 | ≤ 50 | 500 to 5000
O=C(/C=C/CN1CCCC1)N1CCOc2c1ccc1ncnc(Nc3ccc(Oc4ccccc4)cc3)c21 [Example 91, (E)-1-(10-((4-phenoxyphenyl)amino)-2,3-dihydro-4H-[1,4]oxazino[2,3-f]quinazolin-4-yl)-4-(pyrrolidin-1-yl)but-2-en-1-one] | ≤ 50 | ≤ 50 | ≤ 50 | 500 to 5000
CCN(CC)C/C=C/C(=O)N1CCOc2c1ccc1ncnc(Nc3ccc(Oc4ccccc4)cc3)c21 [Example 92, (E)-4-(diethylamino)-1-(10-((4-phenoxyphenyl)amino)-2,3-dihydro-4H-[1,4]oxazino[2,3-f]quinazolin-4-yl)but-2-en-1-one] | ≤ 50 | ≤ 50 | ≤ 50 | 500 to 5000
O=C(/C=C/CN1CCCCC1)N1CCOc2c1ccc1ncnc(Nc3ccc(Oc4ccccc4)cc3)c21 [Example 93, (E)-1-(10-((4-phenoxyphenyl)amino)-2,3-dihydro-4H-[1,4]oxazino[2,3-f]quinazolin-4-yl)-4-(piperidin-1-yl)but-2-en-1-one] | ≤ 50 | ≤ 50 | ≤ 50 | 50 to 500
O=C(/C=C/CN1CCOCC1)N1CCOc2c1ccc1ncnc(Nc3ccc(Oc4ccccc4)cc3)c21 [Example 94, (E)-4-morpholino-1-(10-((4-phenoxyphenyl)amino)-2,3-dihydro-4H-[1,4]oxazino[2,3-f]quinazolin-4-yl)but-2-en-1-one] | ≤ 50 | ≤ 50 | ≤ 50 | 500 to 5000
CN1CCN(C/C=C/C(=O)N2CCOc3c2ccc2ncnc(Nc4ccc(Oc5ccccc5)cc4)c32)CC1 [Example 95, (E)-4-(4-methylpiperazin-1-yl)-1-(10-((4-phenoxyphenyl)amino)-2,3-dihydro-4H-[1,4]oxazino[2,3-f]quinazolin-4-yl)but-2-en-1-one] | ≤ 50 | ≤ 50 | ≤ 50 | 50 to 500
O=C(/C=C/CN1CCOCC1)N1CCOc2c1ccc1ncnc(Nc3ccc(OCc4cccc(F)c4)c(Cl)c3)c21 [Example 96, (E)-1-(10-((3-chloro-4-((3-fluorobenzyl)oxy)phenyl)amino)-2,3-dihydro-4H-[1,4]oxazino[2,3-f]quinazolin-4-yl)-4-morpholinobut-2-en-1-one] | ≤ 50 | ≤ 50 | ≤ 50 | 50 to 500
CN1CCN(C/C=C/C(=O)N2CCOc3c2ccc2ncnc(Nc4ccc(OCc5ccccn5)c(Cl)c4)c32)CC1 [Example 104, (E)-1-(10-((3-chloro-4-(pyridin-2-ylmethoxy)phenyl)amino)-2,3-dihydro-4H-[1,4]oxazino[2,3-f]quinazolin-4-yl)-4-(4-methylpiperazin-1-yl)but-2-en-1-one] | ≤ 50 | ≤ 50 | ≤ 50 | 50 to 500
CCN(CC)C/C=C/C(=O)N1CCOc2c1ccc1ncnc(Nc3ccc(OCc4ccccn4)c(Cl)c3)c21 [Example 105, (E)-1-(10-((3-chloro-4-(pyridin-2-ylmethoxy)phenyl)amino)-2,3-dihydro-4H-[1,4]oxazino[2,3-f]quinazolin-4-yl)-4-(diethylamino)but-2-en-1-one] | ≤ 50 | ≤ 50 | ≤ 50 | 50 to 500
O=C(/C=C/CN1CCCC1)N1CCOc2c1ccc1ncnc(Nc3ccc(OCc4ccccn4)c(Cl)c3)c21 [Example 106, (E)-1-(10-((3-chloro-4-(pyridin-2-ylmethoxy)phenyl)amino)-2,3-dihydro-4H-[1,4]oxazino[2,3-f]quinazolin-4-yl)-4-(pyrrolidin-1-yl)but-2-en-1-one] | ≤ 50 | ≤ 50 | ≤ 50 | 50 to 500
O=C(/C=C/CN1CCCCC1)N1CCOc2c1ccc1ncnc(Nc3ccc(OCc4ccccn4)c(Cl)c3)c21 [Example 107, (E)-1-(10-((3-chloro-4-(pyridin-2-ylmethoxy)phenyl)amino)-2,3-dihydro-4H-[1,4]oxazino[2,3-f]quinazolin-4-yl)-4-(piperidin-1-yl)but-2-en-1-one] | ≤ 50 | ≤ 50 | ≤ 50 | 500 to 5000
CC(=O)N1CCN(C/C=C/C(=O)N2CCOc3c2ccc2ncnc(Nc4ccc(OCc5ccccn5)c(Cl)c4)c32)CC1 [Example 108, (E)-4-(4-acetylpiperazin-1-yl)-1-(10-((3-chloro-4-(pyridin-2-ylmethoxy)phenyl)amino)-2,3-dihydro-4H-[1,4]oxazino[2,3-f]quinazolin-4-yl)but-2-en-1-one] | ≤ 50 | ≤ 50 | ≤ 50 | 50 to 500

Second part, the compound after the results:

IC50 [1] [nM] | IC50 [2] [nM] | IC50 [3] [nM] | IC50 [4] [nM] | Structure (SMILES)
≤ 50 | ≤ 50 | ≤ 50 | 500 to 5000 | COc1cc(Nc2ncnc3ccc4c(c23)OCCN4C(=O)/C=C/CN(C)C)ccc1OCc1cccc(F)c1 [Example 68, (E)-4-(dimethylamino)-1-(10-((4-((3-fluorobenzyl)oxy)-3-methoxyphenyl)amino)-2,3-dihydro-4H-[1,4]oxazino[2,3-f]quinazolin-4-yl)but-2-en-1-one]
≤ 50 | ≤ 50 | ≤ 50 | 500 to 5000 | CN(C)C/C=C/C(=O)N1CCOc2c1ccc1ncnc(Nc3ccc(OCc4cccc(F)c4)c(F)c3)c21 [Example 69, (E)-4-(dimethylamino)-1-(10-((4-((3-fluorobenzyl)oxy)-3-fluorophenyl)amino)-2,3-dihydro-4H-[1,4]oxazino[2,3-f]quinazolin-4-yl)but-2-en-1-one]
≤ 50 | ≤ 50 | ≤ 50 | 500 to 5000 | Cc1ccc(F)c(Oc2ccc(Nc3ncnc4ccc5c(c34)OCCN5C(=O)/C=C/CN(C)C)cc2)c1 [Example 71, (E)-4-(dimethylamino)-1-(10-((4-(2-fluoro-5-methylphenoxy)phenyl)amino)-2,3-dihydro-4H-[1,4]oxazino[2,3-f]quinazolin-4-yl)but-2-en-1-one]
≤ 50 | ≤ 50 | ≤ 50 | 50 to 500 | CN(C)C/C=C/C(=O)N1CCOc2c1ccc1ncnc(Nc3ccc(Oc4cc(Cl)ccc4F)cc3)c21 [Example 72, (E)-4-(dimethylamino)-1-(10-((4-(5-chloro-2-fluorophenoxy)phenyl)amino)-2,3-dihydro-4H-[1,4]oxazino[2,3-f]quinazolin-4-yl)but-2-en-1-one]
≤ 50 | 50 to 500 | ≤ 50 | 500 to 5000 | CN(C)C/C=C/C(=O)N1CCOc2c1ccc1ncnc(Nc3ccc(Oc4cc(F)ccc4F)cc3)c21 [Example 73, (E)-4-(dimethylamino)-1-(10-((4-(2,5-difluorophenoxy)phenyl)amino)-2,3-dihydro-4H-[1,4]oxazino[2,3-f]quinazolin-4-yl)but-2-en-1-one]
≤ 50 | 50 to 500 | ≤ 50 | 500 to 5000 | CC(Oc1ccc(Nc2ncnc3ccc4c(c23)OCCN4C(=O)/C=C/CN(C)C)cc1)c1cccc(F)c1 (stereo not shown) [Example 74, (E)-4-(dimethylamino)-1-(10-((4-(1-(3-fluorophenyl)ethoxy)phenyl)amino)-2,3-dihydro-4H-[1,4]oxazino[2,3-f]quinazolin-4-yl)but-2-en-1-one]
